The results in this text go back to US20130109636A1, “TRI-AMINO RELEASING FULVATE” (priority 2011, published 2013).

What all share (type): in vivo
The nature of data set [1]: vasodilatation / acceleration of microcirculation. From the text:
(§1) This acceleration of microcirculation has many positive benefits.

A short description of another data set: wound healing.
From the text: as §1

The nature of another data set: hypertension. The note with it: encapsulated.
A further data set can be described thus: anti-inflammatory. The following applies: in all forms.
Another data set in a line: pain relief. The following applies: wounds such as burns and skin lesions.
The next data set in a line: prostate. The note with it: swollen prostate.

With “lithio-arginino-glycino-parabenzene-fulvate [Li-TAFA]”, the “vasodilatation qualities / acceleration of microcirculation” value in data set [1] (used topically or internally) was “exhibited vasodilatation qualities”. Also, the toxic side effects entry in data set [1] (used topically or internally to accelerate microcirculation) is recorded as “without toxic side effects”. Also, in “wound healing” (lesions healed: 3rd degree radiation burns, squamous and basal cell carcinoma, psoriasis, venous stasis ulcers, decubitus ulcers, deep surgical wounding, herpes), the “healing of wounds, burns and chronic lesions” value is “exhibited the ability to aid and accelerate the healing of wounds, burns (of all degrees) and several types of chronic lesions”. In addition, the scar formation entry in the data set “wound healing” (radiation burns of the 3rd degree) is “complete suppression of scar formation”. Moreover, in the data set “hypertension”, the reduction of hypertension result is on record as “demonstrated the ability to reduce hypertension” and the toxic side effects result is listed as “without toxic side effects”. Also, the “reduction of inflammation and of resulting discomfort” value in “anti-inflammatory” is “shown the ability to reduce inflammation and control the discomfort resulting from inflammation”. In addition, in the data set “pain relief”, the pain relief result was “demonstrated substantial pain relief, without diminishing topical sensation”. Moreover, in the data set “prostate”, the prostate size result is listed as “demonstrated the ability to shrink a swollen prostate to normal size”.
